Experimental findings from patent publication US8637079B2, “Solid preparation comprising alogliptin and pioglitazone” (Takeda Pharmaceutical Company Limited, priority 2007, dated 2014) are described below.

The nature of this data set: Chemical stability on storage: amount of benzoic acid remaining as compound (IA). It counts as physicochemical. How it is done: Compound (IA) (50 mg) of Comparative Example 1, the mixture (99.59 mg) of Comparative Example 2, and tablets of Example 1 and Example 2 were preserved in glass bottles at 40° C., 75% RH with opened cap or at 60° C. with closed cap and the amount of benzoic acid remaining as compound (IA) was measured to evaluate the chemical stability.

For the compound `Cn1c(=O)cc(N2CCC[C@@H](N)C2)n(Cc2ccccc2C#N)c1=O` [Comparative Example 1, 2-[[6-[(3R)-3-amino-1-piperidinyl]-3,4-dihydro-3-methyl-2,4-dioxo-1(2H)-pyrimidinyl]methyl]-benzonitrile], the residual benzoic acid by setting is: (40° C., 75% RH, opened bottle, 2 week storage product) 99.2%; (60° C., closed bottle, 2 week storage product) 99.0%; (Initial) 99.8%.
